pIC50: −log10 of the molar value. The source made the active and inactive calls. No cut-off for these calls is given here. Residues, ends and D or L forms follow the SMILES beside them. *: point of attachment. CH2Cl = ClC*
Key:
[1] = molecular target: T1, Threonine aspartase 1 (Homo sapiens) (UniProt Q9H6P5); experiment: Inhibition of recombinant Taspase1 (unknown origin) at 10 to 1000 uM using [35S]-methionine labeled human MLL1 (2400-2900 residues) as substrate preincubated for 30 mins followed by substrate addition measured after 30 mins by SDS-PAGE based autoradiography
T1 sequence (whole entry): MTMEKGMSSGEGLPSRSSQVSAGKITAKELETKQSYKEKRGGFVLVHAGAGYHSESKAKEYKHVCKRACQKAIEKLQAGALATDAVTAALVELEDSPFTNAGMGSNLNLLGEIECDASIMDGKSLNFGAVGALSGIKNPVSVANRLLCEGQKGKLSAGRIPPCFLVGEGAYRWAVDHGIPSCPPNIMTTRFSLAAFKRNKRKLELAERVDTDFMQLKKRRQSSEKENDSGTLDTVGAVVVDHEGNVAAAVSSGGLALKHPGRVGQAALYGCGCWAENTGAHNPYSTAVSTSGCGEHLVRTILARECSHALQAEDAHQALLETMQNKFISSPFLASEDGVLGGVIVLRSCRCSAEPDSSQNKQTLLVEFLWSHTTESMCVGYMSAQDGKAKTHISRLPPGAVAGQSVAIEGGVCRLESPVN

Threonine aspartase 1 = molecular target: T2, Threonine aspartase 1 (Homo sapiens, UniProt Q9H6P5); experiment: Inhibition of recombinant Taspase1 (unknown origin) using [35S]-methionine labeled human MLL1 (2400-2900 residues) as substrate preincubated for 30 mins followed by substrate addition measured after 30 mins by SDS-PAGE based autoradiography
T2 sequence (Q9H6P5 whole entry): T1 sequence (whole entry)

[2] = molecular target: T1, Threonine aspartase 1 (Homo sapiens); experiment: Inhibition of recombinant Taspase1 (unknown origin) up to 0.1 mM using [35S]-methionine labeled human MLL1 (2400-2900 residues) as substrate preincubated for 30 mins followed by substrate addition measured after 30 mins by SDS-PAGE based autoradiography
[3] = molecular target: T1, Threonine aspartase 1 (Homo sapiens); experiment: Inhibition of recombinant Taspase1 (unknown origin) at 1 mM using [35S]-methionine labeled human MLL1 (2400-2900 residues) as substrate preincubated for 30 mins followed by substrate addition measured after 30 mins by SDS-PAGE based autoradiography
Caspase-8 (Homo sapiens) = Caspase-8 (Homo sapiens) (UniProt Q14790); experiment: Inhibition of recombinant caspase8 (unknown origin) at 1 mM using [35S]-methionine labeled p22 BID as substrate preincubated for 30 mins followed by substrate addition measured after 2 hrs by SDS-PAGE based autoradiography
Caspase-8 (Homo sapiens), sequence (Q14790 217-374 limits assumed): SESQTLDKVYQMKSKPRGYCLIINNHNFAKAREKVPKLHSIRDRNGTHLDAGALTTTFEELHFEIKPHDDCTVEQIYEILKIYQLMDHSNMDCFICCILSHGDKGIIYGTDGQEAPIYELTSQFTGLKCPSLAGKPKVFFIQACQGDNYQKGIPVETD
Caspase-8 (Homo sapiens), sequence (Q14790 385-479 limits assumed): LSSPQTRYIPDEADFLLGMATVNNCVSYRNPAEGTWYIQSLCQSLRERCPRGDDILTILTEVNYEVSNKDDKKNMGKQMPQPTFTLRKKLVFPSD

[4] = molecular target: T1, Threonine aspartase 1 (Homo sapiens); experiment: Inhibition of recombinant Taspase1 (unknown origin) at 10 uM using [35S]-methionine labeled human MLL1 (2400-2900 residues) as substrate preincubated for 30 mins followed by substrate addition measured after 30 mins by SDS-PAGE based autoradiography
[5] = molecular target: T1, Threonine aspartase 1 (Homo sapiens); experiment: Covalent irreversible inhibition of recombinant Taspase1 (unknown origin) at 0.1 mM using [35S]-methionine labeled human MLL1 (2400-2900 residues) as substrate preincubated for 15 to 60 mins followed by substrate addition measured after 30 mins by SDS-PAGE based autoradiography
MEF [6] = experiment: Growth inhibition of SV40 transformed Taspase1 deficient MEF after 2 days by MTT assay; assay type: functional, cell-based; conditions: Mus musculus
MEF [7] = experiment: Growth inhibition of SV40 transformed wild-type Taspase1 expressing MEF after 2 days by MTT ssay; assay type: functional, cell-based; conditions: Mus musculus
SF-295 = experiment: Growth inhibition of human SF295 cells expressing Taspase1; assay type: functional, cell-based
MCF7 = experiment: Growth inhibition of human MCF7 cells expressing Taspase1; assay type: functional, cell-based
T47D = experiment: Growth inhibition of human T47D cells expressing Taspase1; assay type: functional, cell-based
MDA-MB-231 = experiment: Growth inhibition of human MDA-MB-231 cells expressing Taspase1; assay type: functional, cell-based
BT-549 = experiment: Growth inhibition of human BT549 cells expressing Taspase1; assay type: functional, cell-based
Hs-578T = experiment: Growth inhibition of human Hs578T cells expressing Taspase1; assay type: functional, cell-based
U-251 = experiment: Growth inhibition of human U251 cells expressing Taspase1; assay type: functional, cell-based
SF-539 = experiment: Growth inhibition of human SF539 cells expressing Taspase1; assay type: functional, cell-based
SNB-75 = experiment: Growth inhibition of human SNB75 cells expressing Taspase1; assay type: functional, cell-based
SF-268 = experiment: Growth inhibition of human SF268 cells expressing Taspase1; assay type: functional, cell-based

O=C(O)Cc1ccc(Oc2ccc(CC(=O)O)cc2)cc1
inhibition [1]: inactive

CC[C@H](C)[C@H](NC(=O)[C@H](CCCCN)NC(C)=O)C(=O)N[C@@H](CO)C(=O)N[C@@H](CCC(N)=O)C(=O)N[C@@H](CC(C)C)C(=O)N[C@H](C=O)CC(=O)O (Ac-KISQLD-aldehyde)
pIC50 (Threonine aspartase 1): < 4.00

O=[As](O)(O)O
inhibition [2]: inactive

O=[As](O)(O)c1ccc(Cc2ccc([As](=O)(O)O)cc2)cc1
inhibition [3]: Active
inhibition (Caspase-8 (Homo sapiens)): inactive
inhibition [4]: Active
inhibition [5]: inactive
growth inhibition (GI) (MEF [6]): inactive
growth inhibition (GI) (MEF [7]): Active
growth inhibition (GI) (SF-295): Active
growth inhibition (GI) (MCF7): Active
growth inhibition (GI) (T47D): Active
growth inhibition (GI) (MDA-MB-231): Active
growth inhibition (GI) (BT-549): Active
growth inhibition (GI) (Hs-578T): Active
growth inhibition (GI) (U-251): Active
growth inhibition (GI) (SF-539): Active
growth inhibition (GI) (SNB-75): Active
growth inhibition (GI) (SF-268): Active

CC[C@H](C)[C@H](NC(C)=O)C(=O)N[C@@H](CO)C(=O)N[C@@H](CCC(N)=O)C(=O)N[C@@H](CC(C)C)C(=O)N[C@@H](CC(=O)O)C(=O)CCl (Ac-ISQLD-CH2Cl)
pIC50 (Threonine aspartase 1): < 4.00
